*1 amine or outer side, *2 acyl side, *3 side chain or, on linkers, in order; H or OH if unused. Where a SMILES comes first, the peptide text is derived from it. Bridges are numbered along the chain shown (N, C = ends). Where no end group is shown, it is not given here. [ ]: non-standard residue; d: D form. The star is where a group is joined. X1 = NC1=N[C@@H]([C@H](N[*:1])C(=O)[*:2])C[C@H](O)N1; ΔAla(Z-3-ureido) = NC(=O)N/C=C(\N)C(=O)O; β3hOrn = NCCC[C@H](N)CC(=O)*; Dap = NC[C@H](N)C(=O)O
Columns and labels:
A. namibiensis = test: Testing selection markers (antibiotic resistance) suitable for genetic manipulations of A. namibiensis; as to Growth after 4 days: key: −: no growth; +: slight growth; ++: medium growth; +++: strong growth; as to Growth after 7 days: key: −: no growth; +: slight growth; ++: medium growth; +++: strong growth; format: cell-based, Actinomadura namibiensis; details: for Growth after 4 days / Growth after 7 days: A. namibiensis
Description: An apramycin resistance gene was used as selectable marker for vectors used in this study because from all eight tested antibiotics A. namibiensis was […] to apramycin (50 μg/ml). Initially for establishing a way in which DNA can be introduced into A. namibiensis the typical cloning vectors for Streptomyces strains were used. Plasmid pUWLoriT which can replicate autonomously in Streptomyces and plasmid pSET152 which can integrate site-specifically at the bacteriophage ΦC31 attachment site (18) (7) were used. […] Although Actinomaduras and Streptomyces are related it is still possible that origin of replication (ori) for Streptomyces is not recognized by A. namibiensis (9). Description of similar difficulties can be found in the literature (17). This led to the use of vectors harboring replicons of Actinomadura strains: pSETermEΔHindIII_oriCLL4, pK18mobXylE_oripCLL4 and pCLL4_ori_apra. Also a non-replicating plasmid pK18mob2 with a fragment coding for the LabKC modifying enzyme was used for transformation of A. namibiensis.

human P2X4 receptor = biological target: T1, human P2X4 receptor (Homo sapiens, UniProt Q99571); test: IC50 determination by patch clamp on hP2X4_HEK-FITR cell line (in vitro anti-pain assay); format: cell-based; details: recombinant human P2X4 in HEK cells, 10 μM ATP, holding potential −60 mV, 0.3 to 90 μM
T1 construct: expressed in transfected cells; host or cells: HEK cells (hP2X4_HEK-FITR), expression induced with doxycyclin
T1 sequence (Q99571 1-388): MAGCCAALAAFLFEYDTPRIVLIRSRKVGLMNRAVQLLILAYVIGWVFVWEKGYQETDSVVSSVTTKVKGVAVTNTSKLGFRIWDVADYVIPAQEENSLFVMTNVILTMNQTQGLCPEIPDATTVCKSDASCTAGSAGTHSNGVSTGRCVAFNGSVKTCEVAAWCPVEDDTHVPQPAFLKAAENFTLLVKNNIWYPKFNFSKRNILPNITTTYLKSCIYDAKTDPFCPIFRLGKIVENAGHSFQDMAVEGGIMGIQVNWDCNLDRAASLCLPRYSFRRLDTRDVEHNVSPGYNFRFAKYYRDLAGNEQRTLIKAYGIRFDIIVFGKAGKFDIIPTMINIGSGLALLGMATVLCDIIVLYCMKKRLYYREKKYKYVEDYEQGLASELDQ
Source text: Evaluation of anti-pain activity of labyrinthopeptin A2 and its structural analogs LabA2_L14A and LabA2 F15A in an in vitro assay (IC50 determination of LabA2, LabA2_L14A and LabA2_F15A on hP2X4_HEK-FITR-cell line) The use of labyrinthopeptin A2 and its derivatives, in particular LabA2_L14A and LabA2_F15A, as analgesics was investigated for neuropathic pain based on their inhibitory effects on P2X4 receptors (Nagata K et al., 2009).
Recombinant human P2X4 receptor was expressed in HEK cells (hP2X4_HEK-FITR). hP2X4 expression was induced with doxycyclin 1 μg/ml for 24 h to 48 h. The patch clamp experiment has been performed under standard conditions using an axopatch-200B amplifier and pClamp v10 acquisition software (Axon Instruments Inc, Foster City, Calif., USA). Cells were continuously superfused with an external solution consisting of (in mM) 130 CsCl, 4 NaCl, 1 MgCl2, 1 CaCl2, 10 EGTA (free Ca^2+=6.7 nM) and 10 HEPES (pH 7.4 with CsOH). This was replaced with a […] external solution consisting of (in mM) 145 NaCl, 4 KCl, 2 CaCl2, 1 MgCl2 and 10 HEPES (pH 7.4 with NaOH). 250 ms application of 10 μM ATP (Sigma) every 10 sec was performed. […] Currents were measured at a holding potential of −60 mV.
Results were calculated using Origin7.5 software (FIG. 27).

[1] = biological target: T2, Recombinant human P2X4 receptor (human, UniProt Q99571 1-388); test: cell-based or functional assay
T2 sequence (looked up): T1 sequence (Q99571 1-388)

CN[C@@H]1[C@@H](O[C@H]2O[C@H](CO)[C@@H](N)[C@H](O)[C@H]2O)OC2C[C@@H](N)[C@@H](O[C@H]3[C@H](O)[C@@H](O)[C@H](N)C[C@@H]3N)OC2[C@@H]1O (stereo partly shown) [Apramycin]
sensitivity of A. namibiensis to antibiotic (A. namibiensis; 50 μg/ml): sensitive | Growth after 4 days (A. namibiensis; antibiotic conc. 25 μg/ml): − | Growth after 7 days (A. namibiensis; antibiotic conc. 25 μg/ml): + | Growth after 4 days (A. namibiensis; antibiotic conc. 50 μg/ml): − | Growth after 7 days (A. namibiensis; antibiotic conc. 50 μg/ml): −

NC[C@H]1O[C@H](O[C@H]2[C@H](O)[C@@H](O[C@H]3O[C@H](CO)[C@@H](O)[C@H](N)[C@H]3O)[C@H](N)C[C@@H]2N)[C@H](O)[C@@H](O)[C@@H]1O [Kanamycin]
Growth after 4 days (A. namibiensis; antibiotic conc. 50 μg/ml): +++ | Growth after 7 days (A. namibiensis; antibiotic conc. 50 μg/ml): +++

C[C@@H]1O[C@@H]1P(=O)(O)O [Phosphomycin]
Growth after 4 days (A. namibiensis; antibiotic conc. 400 μg/ml): +++ | Growth after 7 days (A. namibiensis; antibiotic conc. 400 μg/ml): +++

CN[C@@H]1[C@H](O)[C@H](NC)[C@H]2O[C@@]3(O)C(=O)C[C@@H](C)O[C@H]3O[C@@H]2[C@H]1O [Spectinomycin]
Growth after 4 days (A. namibiensis; antibiotic conc. 100 μg/ml): +++ | Growth after 7 days (A. namibiensis; antibiotic conc. 100 μg/ml): +++

[H]/N=C(/N)N[C@H]1[C@H](O)[C@@H](O)[C@H](O[C@@H]2O[C@@H](C)[C@](O)(C=O)[C@H]2O[C@@H]2O[C@@H](CO)[C@H](O)[C@@H](O)[C@@H]2NC)[C@@H](N/C(N)=N\[H])[C@@H]1O [Streptomycin]
Growth after 4 days (A. namibiensis; antibiotic conc. 30 μg/ml): + | Growth after 7 days (A. namibiensis; antibiotic conc. 30 μg/ml): ++

C=C(NC(=O)C(=C)NC(=O)c1csc(C2=N[C@@H]3c4csc(n4)[C@H]4NC(=O)c5csc(n5)[C@H]([C@](C)(O)[C@@H](C)O)NC(=O)[C@H]5CSC(=N5)/C(=C/C)NC(=O)[C@H]([C@@H](C)O)NC(=O)c5csc(n5)[C@]3(CC2)NC(=O)[C@H](C)NC(=O)C(=C)NC(=O)[C@H](C)NC(=O)[C@H]([C@@H](C)CC)N[C@@H]2C=Cc3c([C@H](C)O)cc(nc3[C@H]2O)C(=O)O[C@@H]4C)n1)C(N)=O [Thiostrepton]
Growth after 4 days (A. namibiensis; antibiotic conc. 25 μg/ml): − | Growth after 7 days (A. namibiensis; antibiotic conc. 25 μg/ml): + | sensitivity of A. namibiensis to antibiotic (A. namibiensis; concentration not given): not sensitive

NCCC[C@H](N)CC(=O)N[C@H]1CNC(=O)[C@H]([C@H]2C[C@H](O)NC(N)=N2)NC(=O)/C(=C/NC(N)=O)NC(=O)[C@H](CO)NC(=O)[C@H](CO)NC1=O [Viomycin] (β3hOrn-[Dap]SS[ΔAla(Z-3-ureido)][X1]; lactam 1-C)
Growth after 4 days (A. namibiensis; antibiotic conc. 30 μg/ml): + | Growth after 7 days (A. namibiensis; antibiotic conc. 30 μg/ml): +

Hydromycin
Growth after 4 days (A. namibiensis; antibiotic conc. 50 μg/ml): ++ | Growth after 7 days (A. namibiensis; antibiotic conc. 50 μg/ml): +++

LabA2_F15A (SDWSLWECCSTGSLAACC)
IC50 (concentration of a substance that blocks 50% of channels) (human P2X4 receptor): could not be determined

B1: LabA2_L14A (peptide)
peptide: SDWSLWECCSTGSAFACC
modifications: thioether (positions not given here); not fully specified (residues 1, 4, 10, 13, bridges); also: labionin residues as in LabA2: methylene bridges between alpha-C atoms, places not given here
IC50 of inhibition of ATP-evoked currents (patch clamp, hP2X4_HEK-FITR cells) [1]: 30 µM

Source: patent US20150274787A1, “METHOD FOR RECOMBINANT PRODUCTION OF LABYRINTHOPEPTINS AND FUNCTIONAL DERIVATIVES THEREOF” (priority 2011, published 2015)
